Entries after “also recorded” stand apart in the source; their conditions may differ.
Test system: murine erythrocytes
Assay: Effect of DY-65 on GSH, GSSG and GSH:GSSG ratio in murine erythrocytes exposed to hydrogen peroxide
Assay type: cell-based, mice
Conditions: DY-65 5 μM
Experimental: The in vitro efficacy of peptide DY-65 in suppressing the decrease in the ratio of GSH to GSSG in murine erythrocytes exposed to hydrogen peroxide was tested.
Murine erythrocytes (“Cells”) were prepared by washing freshly harvested whole blood from mice three times in PBS. Cells were resuspended in DMEM at a concentration of 10^6 per mL. All study conditions were evaluated in triplicate.
Hydrogen peroxide (200 μM) was utilized to induce redox stress in murine erythrocytes (“Cells”). Prior to exposure to hydrogen peroxide, cells were randomly allocated to the following experimental groups:
1. Sham (no exposure to hydrogen peroxide; no drug) • a. 2.5 h final incubation
2. Vehicle control (hydrogen peroxide; no drug) • a. 1.0 h final incubation • b. 1.5 h final incubation • c. 2.0 h final incubation • d. 2.5 h final incubation
3. DY-65 (5 μM)+hydrogen peroxide • a. 1.0 h final incubation • b. 1.5 h final incubation • c. 2.0 h final incubation • d. 2.5 h final incubation
Cells at a concentration of 10^6 per mL were incubated with vehicle DMEM (Groups 1 or 2) or peptide DY-65 (Group 3) for 3 hours at 37° C. Thereafter, cells were washed three times with DMEM and resuspended in vehicle DMEM (Group 1) or hydrogen peroxide in DMEM (Groups 2-3) for 1 hour at 37° C.
Thereafter, cells were washed three times with DMEM and resuspended in DMEM at 37° C., 10^6 per mL, with peptide DY-65 (Group 3) or without peptide DY-65 (Groups 1-2). The duration of final incubation was 1.0, 1.5, 2.0, or 2.5 h. Cells were then pelleted, lysed, and processed for measurement of GSH and GSSG using a Glutathione Assay kit sold by Cayman (Chemical Item Number 703002). Data were expressed as micromoles of GSH or GSSG per 1 million erythrocytes.
Given 9 conditions, 3 replicates per condition, and 2 endpoints (GSH and GSSG), a total of 54 wells were incubated.
Data analysis. All values in the figure and text below were expressed as mean±standard deviation (SD) and standard error (SE) of n observations. The results were analyzed by one-way ANOVA followed by Tukey's post-hoc test for multiple comparisons. […]

N-acetyl-Cys-Lys-Met-Cys-NH2 (Ac-CKMC-NH2; cysteine pairing not given here) [DY-65]
effect on GSH concentration after hydrogen peroxide (hydrogen peroxide 200 μM 1 h, 1 h final incubation, FIG. 2C): completely protective; also recorded: increase GSH
effect on GSSG elevation in response to hydrogen peroxide (hydrogen peroxide 200 μM 1 h, final incubation 1.0-2.5 h, FIG. 2D): uniformly effective in suppressing the elevation of GSSG; also recorded: decrease GSSG
ratio of GSH to GSSG (hydrogen peroxide 200 μM, earliest time point, 1 h post exposure, FIG. 2E): clear benefit

— patent US9493507B2, “Glutathione-elevating compositions and uses thereof” (Oneday— Biotech And Pharma Ltd., priority 2012, dated 2016)
